Experimental data: paper PMC6628920 (Chemico-biological interactions, 2018)

Columns and labels:
recombinant UGT1A1 [1] = biological target: T1, recombinant UGT1A1 (Homo sapiens, UniProt P22309); experiment: Kinetics of cycloicaritin-3-O-glucuronidation by recombinant UGT1A1; assay type: in vitro ADME; settings: Hill equation
T1 sequence (P22309 26-533): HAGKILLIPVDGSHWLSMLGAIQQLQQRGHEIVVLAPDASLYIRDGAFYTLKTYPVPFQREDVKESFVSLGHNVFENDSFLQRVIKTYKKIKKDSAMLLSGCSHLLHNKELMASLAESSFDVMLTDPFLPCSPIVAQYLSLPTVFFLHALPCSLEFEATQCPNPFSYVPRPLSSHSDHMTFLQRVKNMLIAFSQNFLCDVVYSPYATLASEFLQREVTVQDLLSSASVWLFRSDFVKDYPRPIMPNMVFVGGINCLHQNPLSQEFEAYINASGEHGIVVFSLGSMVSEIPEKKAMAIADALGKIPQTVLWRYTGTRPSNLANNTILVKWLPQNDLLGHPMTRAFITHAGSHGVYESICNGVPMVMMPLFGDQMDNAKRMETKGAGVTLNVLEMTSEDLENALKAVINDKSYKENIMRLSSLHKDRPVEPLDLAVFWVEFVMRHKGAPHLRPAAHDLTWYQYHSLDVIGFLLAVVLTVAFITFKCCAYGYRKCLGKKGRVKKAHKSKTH

HeLa1A1 cell lysate [2] = biological target: T2, HeLa1A1 cell lysate (Homo sapiens, UniProt P22309); experiment: Kinetics of cycloicaritin-3-O-glucuronidation by HeLa1A1 cell lysate; assay type: in vitro ADME; settings: Hill equation
T2 sequence (P22309 26-533): T1 sequence (P22309 26-533)

[3] = Metabolite formation from cycloicaritin by wild-type HeLa cell lysate; assay type: in vitro ADME, human; settings: cycloicaritin 8 μM, 2 h
[4] = cited from earlier work
[5] = cited from earlier work; remark: listed apart in the source
recombinant UGT1A1 [6] = biological target: T1, recombinant UGT1A1; experiment: Chemical inhibition of cycloicaritin-3-O-glucuronidation by recombinant UGT1A1; assay type: biochemical; settings: cycloicaritin 8 μM
HeLa1A1 cell lysate [7] = biological target: T2, HeLa1A1 cell lysate; experiment: Chemical inhibition of cycloicaritin-3-O-glucuronidation by HeLa1A1 cell lysate; assay type: biochemical; settings: cycloicaritin 8 μM
MRPs = experiment: Effects of MRPs inhibitors on excretion of CICT-3-G in HeLa1A1 cells; assay type: cell-based, human; settings: inhibitor 0.05 and 0.2 μM, cycloicaritin 8 μM
MRP1 = MRP1 (Homo sapiens, UniProt P33527); assay type: in vitro ADME
MRP1, sequence (P33527 whole entry): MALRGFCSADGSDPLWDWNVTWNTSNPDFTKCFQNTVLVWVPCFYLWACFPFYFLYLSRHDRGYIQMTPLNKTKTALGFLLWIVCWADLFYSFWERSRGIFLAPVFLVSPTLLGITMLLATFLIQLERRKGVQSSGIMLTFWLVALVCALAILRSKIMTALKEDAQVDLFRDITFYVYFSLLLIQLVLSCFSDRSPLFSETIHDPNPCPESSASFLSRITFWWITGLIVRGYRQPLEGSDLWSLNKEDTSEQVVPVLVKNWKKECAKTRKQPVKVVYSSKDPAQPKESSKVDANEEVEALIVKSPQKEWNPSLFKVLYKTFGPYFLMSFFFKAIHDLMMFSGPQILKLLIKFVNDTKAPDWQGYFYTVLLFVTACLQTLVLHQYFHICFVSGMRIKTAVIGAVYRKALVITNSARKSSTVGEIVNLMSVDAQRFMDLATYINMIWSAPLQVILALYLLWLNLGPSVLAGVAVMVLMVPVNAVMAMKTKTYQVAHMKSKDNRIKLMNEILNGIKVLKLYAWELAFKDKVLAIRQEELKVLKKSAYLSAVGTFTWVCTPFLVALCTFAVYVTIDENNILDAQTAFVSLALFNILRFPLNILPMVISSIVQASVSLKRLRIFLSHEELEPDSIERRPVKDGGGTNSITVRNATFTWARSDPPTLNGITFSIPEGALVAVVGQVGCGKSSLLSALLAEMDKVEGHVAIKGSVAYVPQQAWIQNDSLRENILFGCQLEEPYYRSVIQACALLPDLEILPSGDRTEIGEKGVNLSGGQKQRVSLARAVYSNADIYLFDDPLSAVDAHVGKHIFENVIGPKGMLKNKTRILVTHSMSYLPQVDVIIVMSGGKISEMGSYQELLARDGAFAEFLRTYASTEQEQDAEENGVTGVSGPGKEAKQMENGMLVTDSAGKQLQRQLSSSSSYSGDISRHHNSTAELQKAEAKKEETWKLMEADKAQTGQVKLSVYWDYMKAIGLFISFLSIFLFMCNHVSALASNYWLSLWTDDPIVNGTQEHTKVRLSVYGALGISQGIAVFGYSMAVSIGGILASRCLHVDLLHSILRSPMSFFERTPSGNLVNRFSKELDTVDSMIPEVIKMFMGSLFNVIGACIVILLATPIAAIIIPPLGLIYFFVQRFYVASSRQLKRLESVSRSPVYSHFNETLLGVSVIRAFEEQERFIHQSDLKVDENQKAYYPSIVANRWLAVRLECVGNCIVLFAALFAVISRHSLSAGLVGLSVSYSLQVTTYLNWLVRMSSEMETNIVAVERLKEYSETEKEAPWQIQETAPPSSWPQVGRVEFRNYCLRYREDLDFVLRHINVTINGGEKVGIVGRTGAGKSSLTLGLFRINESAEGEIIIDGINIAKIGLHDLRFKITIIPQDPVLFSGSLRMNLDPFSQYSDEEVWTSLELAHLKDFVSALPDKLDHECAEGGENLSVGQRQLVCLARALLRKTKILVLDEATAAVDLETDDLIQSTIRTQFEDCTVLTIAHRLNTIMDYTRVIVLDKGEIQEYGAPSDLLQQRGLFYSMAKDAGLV

MRP4 = biological target: T3, MRP4 (Homo sapiens, UniProt O15439); assay type: in vitro ADME
T3 sequence (O15439 1-1325): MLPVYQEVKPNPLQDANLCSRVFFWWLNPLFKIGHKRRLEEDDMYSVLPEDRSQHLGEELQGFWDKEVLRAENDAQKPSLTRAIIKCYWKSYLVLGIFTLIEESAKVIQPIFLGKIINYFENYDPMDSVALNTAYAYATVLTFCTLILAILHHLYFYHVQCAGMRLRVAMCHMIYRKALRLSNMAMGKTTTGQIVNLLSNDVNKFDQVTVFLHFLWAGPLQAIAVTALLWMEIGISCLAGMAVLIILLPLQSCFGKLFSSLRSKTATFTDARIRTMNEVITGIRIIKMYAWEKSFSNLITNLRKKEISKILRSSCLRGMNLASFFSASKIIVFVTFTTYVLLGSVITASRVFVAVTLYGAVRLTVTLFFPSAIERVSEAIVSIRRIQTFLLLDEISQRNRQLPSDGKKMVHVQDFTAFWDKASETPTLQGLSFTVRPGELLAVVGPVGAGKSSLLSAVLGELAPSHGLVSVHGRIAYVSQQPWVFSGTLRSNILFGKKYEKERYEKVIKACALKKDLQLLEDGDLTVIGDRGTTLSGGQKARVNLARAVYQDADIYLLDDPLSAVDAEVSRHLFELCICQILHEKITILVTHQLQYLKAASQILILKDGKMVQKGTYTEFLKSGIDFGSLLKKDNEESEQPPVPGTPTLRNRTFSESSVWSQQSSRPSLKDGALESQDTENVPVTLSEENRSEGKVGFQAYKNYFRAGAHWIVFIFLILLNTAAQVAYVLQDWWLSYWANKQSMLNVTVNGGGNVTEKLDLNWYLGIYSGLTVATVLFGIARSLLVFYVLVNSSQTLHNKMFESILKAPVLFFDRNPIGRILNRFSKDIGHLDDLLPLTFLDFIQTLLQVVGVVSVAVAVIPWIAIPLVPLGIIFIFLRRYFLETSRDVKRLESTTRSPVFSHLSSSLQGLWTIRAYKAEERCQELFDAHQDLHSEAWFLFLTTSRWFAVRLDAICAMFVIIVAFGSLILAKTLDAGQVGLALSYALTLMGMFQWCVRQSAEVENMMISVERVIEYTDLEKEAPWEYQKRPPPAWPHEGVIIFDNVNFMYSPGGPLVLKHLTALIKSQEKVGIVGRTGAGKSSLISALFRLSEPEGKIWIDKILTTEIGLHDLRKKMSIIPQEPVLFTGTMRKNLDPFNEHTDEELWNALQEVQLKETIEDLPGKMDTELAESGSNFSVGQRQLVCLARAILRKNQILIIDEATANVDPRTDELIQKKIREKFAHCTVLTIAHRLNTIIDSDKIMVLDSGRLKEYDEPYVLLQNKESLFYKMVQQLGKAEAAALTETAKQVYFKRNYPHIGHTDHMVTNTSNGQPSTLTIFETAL

SMILES: COc1ccc(-c2oc3c4c(cc(O)c3c(=O)c2O)OC(C)(C)CC4)cc1 [cycloicaritin, Cycloicaritin]
- CLmax of cycloicaritin-3-O-glucuronidation (recombinant UGT1A1 [1]): 190 µL/min/mg
- S50 of cycloicaritin-3-O-glucuronidation (recombinant UGT1A1 [1]): 1.43 µM
- n (Hill coefficient) of cycloicaritin-3-O-glucuronidation (recombinant UGT1A1 [1]): 1.67 µM
- Vmax of cycloicaritin-3-O-glucuronidation (recombinant UGT1A1 [1]; cycloicaritin 0.1-10 μM): 0.54 nmol/min/mg
- CLmax of cycloicaritin-3-O-glucuronidation (HeLa1A1 cell lysate [2]): 17 µL/min/mg
- S50 of cycloicaritin-3-O-glucuronidation (HeLa1A1 cell lysate [2]): 1.19 µM
- n (Hill coefficient) of cycloicaritin-3-O-glucuronidation (HeLa1A1 cell lysate [2]): 1.71 µM
- Vmax of cycloicaritin-3-O-glucuronidation (HeLa1A1 cell lysate [2]; cycloicaritin 0.1-10 μM): 0.04 nmol/min/mg
- metabolites detected after incubation with cell lysate [3]: no metabolites were detected

SMILES: COc1ccc(-c2oc3c(CC=C(C)C)c(O)cc(O)c3c(=O)c2O)cc1 [icaritin]
- CLint of glucuronidation in human liver [4]: > 350 µL/min/mg
- CLint of glucuronidation in human intestine [5]: > 180 µL/min/mg

SMILES: COc1ccc(-c2oc3c(CCC(C)(C)O)c(O)cc(O)c3c(=O)c2O)cc1 [wushanicaritin]
- CLint of glucuronidation in human liver [4]: > 350 µL/min/mg
- CLint of glucuronidation in human intestine [5]: > 180 µL/min/mg

SMILES: CCCCC/C=C\C\C=C/C=C/C=C/[C@@H](SC[C@H](NC(=O)CC[C@H](N)C(=O)O)C(=O)NCC(=O)O)[C@@H](O)CCCC(=O)O [LTC4, leukotriene C4]
- effect on cycloicaritin-3-O-glucuronidation activity (recombinant UGT1A1 [6]; inhibitor 0.05 and 0.2 μM): did not alter
- effect on cycloicaritin-3-O-glucuronidation activity (HeLa1A1 cell lysate [7]; inhibitor 0.05 and 0.2 μM): did not alter
- effect on CLapp value of CICT-3-G (MRPs): no significant changes
- effect on fmet value of CICT-3-G (MRPs): no significant changes
- effect on the intracellular level of CICT-3-G (MRPs): did not alter
- effect on the rate of efflux excretion of CICT-3-G (MRPs): did not alter

SMILES: COc1ccc(-c2oc3c4c(cc(O)c3c(=O)c2O[C@@H]2O[C@H](C(=O)O)[C@@H](O)[C@H](O)[C@H]2O)OC(C)(C)CC4)cc1 [CICT-3-G, cycloicaritin-3-O-glucuronide]
- decrease of the efflux clearance of CICT-3-G (MRP1): 52.0%
- decrease in the efflux clearance of CICT-3-G (MRP4): 28.7%

SMILES: COc1ccc2c3c([nH]c2c1)[C@H](CC(C)C)N1C(=O)[C@H](CCC(=O)OC(C)(C)C)NC(=O)[C@@H]1C3 [Ko143]
- remaining cycloicaritin-3-O-glucuronidation activity, % of the control values (recombinant UGT1A1 [6]; inhibitor 20 μM): 12.5%
- remaining cycloicaritin-3-O-glucuronidation activity, % of the control values (HeLa1A1 cell lysate [7]; inhibitor 20 μM): 8.8%
